Assay results taken from publication PMC6072251 (ACS Omega, 2018).
≈ marks a conversion by molar mass, not a printed value. Where two headings read alike, the source gives them in different places.

Legend:
S. mutans biofilm = S. mutans biofilm formation and inhibition assay; type: cell-based, Streptococcus mutans UA159; conditions: for IC50: Streptococcus mutans
S. mutans growth = S. mutans growth inhibition assay; type: cell-based, Streptococcus mutans UA159; conditions: Streptococcus mutans, read-out: Growth MIC50
Gtfs = experiment: Zymogram assay of Gtf enzymatic activity; type: biochemical, S. mutans UA159; conditions: compared to DMSO control
S. mutans = experiment: Cell viability / growth of S. mutans; type: cell-based
S. sanguinis = experiment: Growth of commensal S. sanguinis; type: cell-based, Streptococcus sanguinis SK36
S. gordonii = experiment: Growth of commensal S. gordonii; type: cell-based, Streptococcus gordonii DL1
S. mutans colonization = experiment: Sucrose-dependent drosophila colonization model; type: in vivo; conditions: 50 μM, feeding assay, after 7 days of infection
[1] = test system: S. mutans UA159-induced dental caries; experiment: Rat model of dental caries; type: in vivo, Fischer 344 rats; conditions: for bacterial colonization (cfu/mandible) / body weight over the course of the study: 100 μM twice daily for 4 weeks; for bacterial colonization (cfu/mandible): compared with control group treated with water; for body weight over the course of the study: in comparison with the control group; for oral tissue (mucosal and gingival tissues) at sacrifice: treated vs nontreated rats

Row | Structure (SMILES) | IC50 (S. mutans biofilm; read-out: Biofilm IC50, S. mutans biofilm, NI: no inhibition) | MIC50 (S. mutans growth) | glucan production / Gtf inhibition in zymogram assay (in words) (Gtfs) | viability of the biofilms and the planktonic cells (S. mutans; S. mutans) | inhibition of cell viability (S. mutans; S. mutans, at 400 μM) | inhibition at 52 µM (S. mutans; Streptococcus mutans, read-out: growth inhibited) | decrease of cell density (S. sanguinis; S. sanguinis, at 400 μM) | inhibition at 52 µM (S. sanguinis; Streptococcus sanguinis, read-out: growth inhibited) | decrease of cell density (S. gordonii; S. gordonii, at 400 μM) | inhibition at 52 µM (S. gordonii; Streptococcus gordonii, read-out: growth inhibited) | fluorescence in the guts of flies fed Gfp-tagged S. mutans (S. mutans colonization) | bacterial colonization (cfu/mandible) [1] | body weight over the course of the study [1] | oral tissue (mucosal and gingival tissues) at sacrifice [1] | IC50 (S. mutans biofilm; read-out: Biofilm IC50) | Selectivity (S. mutans biofilm; biofilm inhibition over growth inhibition of S. mutans)
1 | Oc1cc(O)cc(/C=C/c2ccc(O)c(O)c2)c1 [Compound 8, piceatannol] | 52 ± 6 µM | 564 ± 37.8 µM (≈ 138 µg/mL) | greatly reduced glucan production | not significantly impacted | 37% | < 10% | 15–18% | < 10% | 15–18% | < 10% | significant decrease in fluorescence | not statistically significant | did not lose weight | no obvious differences |  | 
2 | O=C(/C=C/c1ccc(O)c(O)c1)O[C@@H]1C[C@](O)(C(=O)O)C[C@@H](O)[C@H]1O [Compound 10] |  | 1720 ± 53 µM (≈ 611 µg/mL) |  |  |  |  |  |  |  |  |  |  |  |  | 518 ± 85 µM | 3.3
3 | Oc1ccc(/C=C/c2cc(O)cc(O)c2)cc1 [Compound 7, resveratrol] |  | 546 ± 15.9 µM (≈ 125 µg/mL) | marginal inhibition |  |  |  |  |  |  |  |  | not statistically significant | did not lose weight | no obvious differences |  | 
